Assay results: patent US20100004272A1, “Modulators of metabolism and the treatment of disorders related thereto” (ARENA PHARMACEUTICALS, INC., priority 2006, published 2010)

Experiments:
RUP3 receptor [1] = biological target: T1, RUP3 receptor (Canis lupus familiaris, UniProt A0A8I3QZL6); experiment: RUP3 dose response in melanophores (dog RUP3); assay type: cell-based
T1 sequence (A0A8I3QZL6 1-335): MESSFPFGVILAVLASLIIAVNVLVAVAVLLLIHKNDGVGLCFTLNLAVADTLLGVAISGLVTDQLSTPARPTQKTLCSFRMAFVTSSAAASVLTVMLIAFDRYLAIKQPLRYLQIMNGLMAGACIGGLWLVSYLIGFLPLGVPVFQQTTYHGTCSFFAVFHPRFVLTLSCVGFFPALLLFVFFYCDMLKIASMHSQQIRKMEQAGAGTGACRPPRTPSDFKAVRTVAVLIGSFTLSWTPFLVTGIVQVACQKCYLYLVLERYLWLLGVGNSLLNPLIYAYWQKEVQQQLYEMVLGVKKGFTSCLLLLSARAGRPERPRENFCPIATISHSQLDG
Procedure: (§1) Melanophores are maintained in culture as reported by Potenza, M. N. and Lerner, M. R., in Pigment Cell Research, Vol. 5, 372-378, 1992 and transfected with the RUP3 expression vector (pCMV) using electroporation. Following electroporation, the transfected cells are plated into 96 well plates for the assay. The cells are then allowed to grow for 48 hours in order to both recover from the electroporation procedure and attain maximal receptor expression levels. On the assay day, the growth medium on the cells is replaced with serum-free buffer containing 10 nM melatonin. The melatonin acts via an endogenous Gi-coupled GPCR in the melanophores to lower intracellular cAMP levels. In response to lowered cAMP levels, the melanophores translocate their pigment to the center of the cell. The net effect of this is a significant decrease in the absorbance reading of the cell monolayer in the well, measured at […]. After a 1-hour incubation in melatonin, the cells become completely pigment-aggregated. At this point a baseline absorbance reading is collected. Serial dilutions of test compounds are then added to the plate and compounds that stimulate RUP3 produce increases in intracellular cAMP levels. […] The measured increase in absorbance compared to the baseline reading allows one to quantitate the degree of receptor stimulation and plot a dose-response curve.

RUP3 receptor [2] = biological target: T2, RUP3 receptor (Homo sapiens, UniProt Q8TDV5); experiment: RUP3 dose response in melanophores (human RUP3); assay type: cell-based
T2 construct: expressed in transfected cells; host or cells: melanophores (as per Potenza and Lerner 1992), electroporated
T2 sequence (Q8TDV5 1-335): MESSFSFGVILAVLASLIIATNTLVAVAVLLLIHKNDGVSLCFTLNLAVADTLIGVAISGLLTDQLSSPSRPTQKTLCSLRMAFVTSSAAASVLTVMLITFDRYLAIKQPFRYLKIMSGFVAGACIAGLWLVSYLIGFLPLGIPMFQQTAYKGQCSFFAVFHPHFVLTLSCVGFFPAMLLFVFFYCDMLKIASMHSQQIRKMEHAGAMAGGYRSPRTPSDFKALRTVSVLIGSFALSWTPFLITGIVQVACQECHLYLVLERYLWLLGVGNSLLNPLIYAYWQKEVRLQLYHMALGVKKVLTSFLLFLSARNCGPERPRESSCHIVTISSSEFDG
Procedure: as §1

RUP3 receptor [3] = biological target: T3, RUP3 receptor (Mus musculus, UniProt Q7TQP3); experiment: RUP3 dose response in melanophores (mouse RUP3); assay type: cell-based
T3 construct: expressed in transfected cells; host or cells: melanophores, electroporated
T3 sequence (Q7TQP3 1-335): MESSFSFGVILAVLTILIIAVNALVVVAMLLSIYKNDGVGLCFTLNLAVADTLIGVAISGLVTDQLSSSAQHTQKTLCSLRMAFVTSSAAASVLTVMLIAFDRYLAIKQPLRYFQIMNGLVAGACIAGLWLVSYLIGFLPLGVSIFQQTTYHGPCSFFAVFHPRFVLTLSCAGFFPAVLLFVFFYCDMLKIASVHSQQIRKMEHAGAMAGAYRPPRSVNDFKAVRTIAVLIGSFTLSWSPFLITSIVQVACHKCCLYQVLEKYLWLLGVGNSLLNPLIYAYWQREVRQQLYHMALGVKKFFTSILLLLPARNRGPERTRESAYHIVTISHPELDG
Procedure: as §1

Male Sprague Dawley rats = experiment: Oral glucose tolerance test (oGTT) in rats; assay type: in vivo, rat; details: fasted male Sprague Dawley rats, p.o. 30 min before dextrose 3 g/kg, doses 0.3, 3 or 30 mg/kg (dose of this value not stated), mean of six animals
Procedure: General Procedure—Oral Glucose tolerance test (oGTT)
Male Sprague Dawley rats (Harlan, San Diego, Calif.) weighing approximately 350-375 g were fasted for 16 hours and randomly grouped (n=6) to receive a RUP3 agonist at 0.3, 3 or 30 mg/kg. Compounds were delivered orally via a gavage needle (p.o., volume 2 mL/kg). At time 0, levels of blood glucose were assessed using a glucometer (Accu-Chek Advantage, Roche Diagnostics), and rats were administered either vehicle (20% hydroxypropyl-beta-cyclodextrin) or test compound. Thirty minutes after administration of test compound, levels of blood glucose were again assessed, and rats were administered dextrose orally at a dose of 3 g/kg. Blood glucose measurements were then taken 30 min, 60 min, and 120 min after this time.

RUP3 receptor [4] = biological target: T4, RUP3 receptor (Rattus norvegicus, UniProt Q7TQN8); experiment: RUP3 dose response in melanophores (rat RUP3); assay type: cell-based
T4 construct: expressed in transfected cells; host or cells: melanophores, electroporated
T4 sequence (Q7TQN8 1-468): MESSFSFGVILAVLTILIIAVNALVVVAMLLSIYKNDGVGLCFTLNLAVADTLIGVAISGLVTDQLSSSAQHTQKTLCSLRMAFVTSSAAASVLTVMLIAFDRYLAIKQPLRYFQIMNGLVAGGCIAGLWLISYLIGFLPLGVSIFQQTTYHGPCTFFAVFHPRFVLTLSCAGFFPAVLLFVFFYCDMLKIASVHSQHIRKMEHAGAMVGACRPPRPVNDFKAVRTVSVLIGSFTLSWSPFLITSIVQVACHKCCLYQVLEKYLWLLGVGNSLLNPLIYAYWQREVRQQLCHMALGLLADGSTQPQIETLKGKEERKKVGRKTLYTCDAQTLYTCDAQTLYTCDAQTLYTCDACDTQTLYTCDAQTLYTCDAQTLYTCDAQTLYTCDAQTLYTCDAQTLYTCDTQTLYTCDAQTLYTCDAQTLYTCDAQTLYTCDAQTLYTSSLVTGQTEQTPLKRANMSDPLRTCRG
Procedure: as §1

[5] = Rat dose-range PK study (dose escalation pharmacokinetics); assay type: in vivo; details: PO 3, 30, 300 mg/Kg, FIG. 1
Procedure: Male SD rats (250-300 g) were purchased from Charles River Laboratory; upon receipt, animals were placed under light-dark cycle (6:30 am-6:30 pm lights on) They were allowed ad libitum access to water and 4 pieces of food daily (Purina Meals Rodent Diet, Product Number 5001).
Compound formulations were prepared as following: The IV injection formulation was prepared in 20% hydroxypropyl-beta-cyclodextrin with concentration of 0.667 mg/mL. The PO formulations were prepared in 0.5% hydroxypropyl methylcellulose with concentrations of […]. The dosing volume for IV injection was 3 mL/Kg and for PO administration was 10 mL/Kg. Four rats were used for each dose group. […]
Plasma samples were prepared as follows. […] Calibration standards were typically prepared in the range of 2.0 ng/mL to 10 μg/mL with linear regression for quantitation. […]
Results were calculated by noncompartmental analysis using WinNonlin Pro version 3.1 based on plasma concentration-time profiles for individual animals. Plasma levels were determined as described above and the oral and intravenous area under the concentration vs. time curve (AUC was calculated using the linear trapezoidal rule up to the last measurable concentration and was then extrapolated to infinity) were compared to determine the % bioavailability (% oF) by the following formula: Dose (IV)*AUC (oral)/Dose (oral)*AUC (IV). […]

EC50 (RUP3 receptor [1]): 8 nM
EC50 (RUP3 receptor [2]): 2 nM
EC50 (RUP3 receptor [3]): 43 nM
EC50 (RUP3 receptor [4]): 42 nM
Structure (SMILES): Cc1nc(S(C)(=O)=O)ccc1Nc1ncnc(OC2CCN(C(=O)OC(C)C)CC2)c1C [Formula (I), 4-[6-(6-methanesulfonyl-2-methyl-pyridin-3-ylamino)-5-methyl-pyrimidin-4-yloxy]-piperidine-1-carboxylic acid isopropyl ester]
mean percent inhibition of glucose excursion (Male Sprague Dawley rats): 38%
dose escalation pharmacokinetics (AUC vs. dose linearity) [5]: essentially linear dose escalation pharmacokinetics
